Measured values taken from PubChem BioAssay AID330 (DTP/NCI, 2004).
Toxic doses and inconclusive results are not listed. Rule for the calls: active = survival T/C of 150% or more; inactive = T/C below 125% in these data.

System: P388 leukemia ip, CD2F1 mice, survival T/C
Test: NCI In Vivo Anticancer Drug Screen. Data for tumor model P388 Leukemia (intraperitoneal) in CD2F1 (CDF1) mice
Details: endpoint: median survival time, higher = longer survival
Outline: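 Mice carrying the transplanted tumor received test compound or vehicle. Survival was recorded in each group, and the value is the treated-group measurement divided by that of the vehicle-treated control group.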

[1] = dose: 50.0 mg/kg/injection, schedule: Q01DX005 (ip), vehicle: Klucel (hydroxypropylcellulose) (HPC)
[2] = dose: 100.0 mg/kg/injection, schedule: Q01DX005 (ip), vehicle: Klucel (hydroxypropylcellulose) (HPC)
[3] = dose: 200.0 mg/kg/injection, schedule: Q01DX005 (ip), vehicle: Klucel (hydroxypropylcellulose) (HPC)
[4] = dose: 50.0 mg/kg/injection, schedule: Q01DX005 (ip), vehicle: saline with Tween-80
[5] = dose: 100.0 mg/kg/injection, schedule: Q01DX005 (ip), vehicle: saline with Tween-80
[6] = dose: 200.0 mg/kg/injection, schedule: Q01DX005 (ip), vehicle: saline with Tween-80

Measured: T/C

O=C(OCC1N=C1c1ccccc1)c1ccc(Br)cc1 (stereo not given)
inactive: dose: 100.0 mg/kg/injection, schedule: Q01DX001 (ip), vehicle: suspension in saline 104 % of control | dose: 200.0 mg/kg/injection, schedule: Q01DX001 (ip), vehicle: suspension in saline 99 % of control | dose: 400.0 mg/kg/injection, schedule: Q01DX001 (ip), vehicle: suspension in saline 104 % of control

CN(CCC(CCC(=O)O)(C(=O)O)c1ccccc1)Cc1ccccc1 (stereo not given)
inactive: [1] 92 % of control | [2] 100 % of control | [3] 98 % of control

CC(C)=COS(=O)(=O)C(F)(F)F
inactive: dose: 50.0 mg/kg/injection, schedule: Q01DX009 (ip), vehicle: olive oil, sesame oil, peanut oil 99 % of control | dose: 100.0 mg/kg/injection, schedule: Q01DX009 (ip), vehicle: olive oil, sesame oil, peanut oil 96 % of control | dose: 200.0 mg/kg/injection, schedule: Q01DX009 (ip), vehicle: olive oil, sesame oil, peanut oil 90 % of control

CCOC(=O)C(C#N)c1cc(O)c(O)c2ccc(O)cc12 (stereo not given)
inactive: dose: 100.0 mg/kg/injection, schedule: Q01DX001 (ip), vehicle: saline with Tween-80 97 % of control | dose: 200.0 mg/kg/injection, schedule: Q01DX001 (ip), vehicle: saline with Tween-80 107 % of control | dose: 400.0 mg/kg/injection, schedule: Q01DX001 (ip), vehicle: saline with Tween-80 106 % of control

COc1cc(CC2C(=O)OCC2Cc2cc(OC)c3c(c2)C(CO)C(c2ccc(O)c(OC)c2)O3)ccc1O (stereo not given)
inactive: dose: 5.0 mg/kg/injection, schedule: Q01DX009 (ip), vehicle: saline with Tween-80 102 % of control | dose: 10.0 mg/kg/injection, schedule: Q01DX009 (ip), vehicle: saline with Tween-80 118 % of control | dose: 20.0 mg/kg/injection, schedule: Q01DX009 (ip), vehicle: saline with Tween-80 101 % of control | dose: 40.0 mg/kg/injection, schedule: Q01DX009 (ip), vehicle: saline with Tween-80 108 % of control

CCn1c2ccccc2c2cc(NC(=O)NC(=O)c3ccccc3)ccc21
inactive: [4] 90 % of control | [5] 90 % of control | [6] 87 % of control

C=CCSc1ncnc2c1ncn2C1OC(CO)C(O)C1O (stereo not given)
inactive: dose: 100.0 mg/kg/injection, schedule: Q04DX003 (ip), vehicle: saline sonified 105 % of control | dose: 200.0 mg/kg/injection, schedule: Q04DX003 (ip), vehicle: saline sonified 115 % of control | dose: 400.0 mg/kg/injection, schedule: Q04DX003 (ip), vehicle: saline sonified 120 % of control

CC(=O)NCCSSCCSC(=S)N1CCCCC1
inactive: [1] 112 % of control | [2] 107 % of control | [3] 102 % of control

O=C1NNC(=O)c2ccccc2C(=O)S1
inactive: dose: 60.0 mg/kg/injection, schedule: Q01DX005 (ip), vehicle: saline with Tween-80 102 % of control | dose: 120.0 mg/kg/injection, schedule: Q01DX005 (ip), vehicle: saline with Tween-80 101 % of control | dose: 240.0 mg/kg/injection, schedule: Q01DX005 (ip), vehicle: saline with Tween-80 97 % of control

C=C(C(=O)OC1C/C(C)=C/C(O)C/C(C)=C/C2OC(=O)C(=C)C21)C(C)O (stereo not given)
inactive: dose: 25.0 mg/kg/injection, schedule: Q04DX002 (ip), vehicle: Klucel (hydroxypropylcellulose) (HPC) 109 % of control | dose: 25.0 mg/kg/injection, schedule: Q04DX002 (ip), vehicle: saline with Tween-80 110 % of control | dose: 50.0 mg/kg/injection, schedule: Q04DX002 (ip), vehicle: Klucel (hydroxypropylcellulose) (HPC) 117 % of control | dose: 50.0 mg/kg/injection, schedule: Q04DX002 (ip), vehicle: saline with Tween-80 102 % of control | dose: 100.0 mg/kg/injection, schedule: Q04DX002 (ip), vehicle: Klucel (hydroxypropylcellulose) (HPC) 117 % of control | dose: 200.0 mg/kg/injection, schedule: Q04DX002 (ip), vehicle: saline with Tween-80 124 % of control

Nc1nc(-c2ccccc2)c(Br)c(=O)[nH]1
inactive: [5] 112 % of control | [6] 105 % of control | dose: 400.0 mg/kg/injection, schedule: Q01DX005 (ip), vehicle: saline with Tween-80 100 % of control

c1ccc(P2(c3ccccc3)=NSN=S=N2)cc1
inactive: [4] 107 % of control | [5] 116 % of control | [6] 108 % of control
